Source: patent US12583891B2, “Peptides and methods for the treatment of diabetes” (IMCYSE SA, priority 2017, dated 2026)

Columns and labels:
[1] = Reductase (reducing) activity of peptides, fluorescent FITC-peptide assay; assay type: biochemical; conditions: fluorescent FITC-peptide disulfide reduction; dithiothreitol control = 100%
Protocol: The reductase activity of the peptides is determined using a fluorescent described in Tomazzolli et al. (2006) Anal. Biochem. 350, 105-112. Two peptides with a FITC label become self-quenching when they covalently attached to each other via a disulfide bridge. Upon reduction by a peptide in accordance with the present invention, the reduced individual peptides become fluorescent again.
Control experiments were performed with dithiothreitol (100% reducing activity) and water (100% reducing activity).

[2] = system: CD4+ T cell line from a T1D patient (T1D07); test: Interferon gamma release by cytolytic CD4+ T cell line; assay type: cell-based, human; conditions: for IFN-gamma (pg/ml), Stimulus 1: T cell line primed with p17-001, after 12 stimulations, co-culture with autologous LCL B cells loaded (2 μM) with peptide, supernatant after 24 hours, multiplex assay
Protocol: Interferon gamma is an important marker to characterise cytolytic CD4+ T cells. A specific CD4+ T cell line was obtained by priming and stimulating naïve CD4+ T cells from a T1D patient (T1D07) with peptide p17-001. After 12 stimulations, cells were co-cultured with autologous LCL B cells loaded (2 μM) with peptide p17-001 or p17-003. After 24 hours, supernatants were collected and IFN-gamma was measured by multiplex assay (see table 1 below).

[3] = system: CD4+ T cell lines from T1D patients; test: FasL release by cytolytic CD4+ T cell lines; assay type: cell-based, human; conditions: for FasL expression (pg/ml) Stimulation 1: day 11 of stimulation 1; for FasL expression (pg/ml) Stimulation 1 / FasL expression (pg/ml) Stimulation 2 / FasL expression (pg/ml) Stimulation 3 / FasL expression (pg/ml) Stimulation 4: restimulation with corresponding peptide presented by autologous B cells; for FasL expression (pg/ml) Stimulation 1 / FasL expression (pg/ml) Stimulation 2: supernatant after 24 h; for FasL expression (pg/ml) Stimulation 2: day 11 of stimulation 2; for FasL expression (pg/ml) Stimulation 3: day 11 of stimulation 3; for FasL expression (pg/ml) Stimulation 3 / FasL expression (pg/ml) Stimulation 4: supernatant after 72 h; for FasL expression (pg/ml) Stimulation 4: day 11 of stimulation 4
Protocol: The T cell line originally generated with p17 001 as described in example 3 above was divided and stimulated with peptide P17 003 or P17 001 over 4 successive in vitro stimulations using autologous LCL B cell line as APC. At day 11 of every stimulation (total of 4), cells were tested for FasL after restimulation with their corresponding peptide presented by autologous B cells. Supernatants were collected after 24 h (stimulation 1 and 2) or 72 h (stimulation 3 and 4) of co-culture.

[4] = system: PBMCs from T1D-patient T1D018 (IL5 positive cells); test: sFasL release in cell lines generated from T1D-patient PBMCs; assay type: cell-based, human; conditions: IL5 positive cells after 6 stimulation cycles, restimulated 24 h with cognate peptide; ELISA; p<0,0001
Protocol: FIG. 1: Release of sFasL in cell lines generated with p17-003 or p17-001. Cells specific for p17-003 or p17-001 (IL5 positive cells; black histograms) were restimulated for 24 h with antigen presenting cells loaded with peptides p17-003 or p17-001, depending of the peptide used for their generation, and supernatant collected after 24 h of co-culture. IL-5 negative cells are for control PBMC populations (open histograms). Results represent mean+/−SD of sFasL concentration corrected per cell number.
(§1) PBMCs from T1D-patient T1D018 were stimulated in vitro either with P17001 peptide or P17003 peptide. These two populations specifically release […] after antigenic activation. After 6 stimulation cycles with the peptides, both cell lines were enriched for IL-5 producing cells with cytokine capture beads. The two populations of Interleukin-5 negative cells were used as controls.
(§2) These four populations are then tested for specific release of sFasL, Granzyme B and cytokines after stimulation with their cognate peptide (P17-001 or P17-003). Supernatants are collected after 24 h of culture and sFasL and Granzyme B are measured by ELISA (sFasL: Diaclone 851730010; Granzyme B: eBioscience BMS2027) and cytokines by MACSplex Cytokine 12 kit (Miltenyi, 130-099-169).

[5] = system: PBMCs from T1D-patient T1D018 (IL5 positive fraction); test: Cytokine release in cell lines generated from T1D-patient PBMCs (MACSplex Cytokine 12 kit); assay type: cell-based, human; conditions: supernatant after 24 h, end of stimulation 10; FIG. 2
Protocol: as §1, §2
To determine if the in vitro cultured cells from T1D donors are specific for peptide P17001 or P17003, the release of cytokines, a hallmark for cell activation upon peptide stimulation, was investigated using MACSplex Cytokine 12 kit (Miltenyi, 130-099-169). Supernatant was collected after 24 h from the culture of T1D donor PBMCs in the absence or presence of the peptide. […] Specificity test was performed at the end of stimulation 10 (resting day). The result is presented as the difference in concentration of each cytokine in the condition without and with peptide.

Compound	reducing activity [1]	IFN-gamma (pg/ml), Stimulus 1 [2]	FasL expression (pg/ml) Stimulation 1 [3]	FasL expression (pg/ml) Stimulation 2 [3]	FasL expression (pg/ml) Stimulation 3 [3]	FasL expression (pg/ml) Stimulation 4 [3]	IFN-gamma produced after stimulation with p17 003 compared to p17 001 ([2]; ratio of Table 1 values)	FasL (sFasL) expression compared to P17-001 ([3]; each of the four stimulations)	sFasL release compared with cells generated by peptide p17-001 [4]	eliciting peptide specific cells (cytokine release upon peptide stimulation) compared with P17001 [5]
O[C@H](CS)[C@H](O)CS (racemic) [dithiothreitol]	100%									
HCPYC VR SLQPLALEGSLQKRG (HCPYCVRSLQPLALEGSLQKRG; peptide with redox motif and insulin T cell epitope) [P17 001, reference compound]	68%	11.1 ± 0.8 pg/mL	1335 ± 23.1 pg/mL	1144 ± 15.4 pg/mL	1227 ± 49.1 pg/mL	1008 ± 102 pg/mL				
HCPYCSLQPLALEGSLQKRG (peptide with redox motif and insulin T cell epitope) [P17 003]	65%	29.7 ± 14.1 pg/mL	1795 ± 42.4 pg/mL	1812 ± 34.7 pg/mL	2063 ± 166 pg/mL	1526 ± 102 pg/mL	about 3 times	significantly higher	4.5 fold	more potent
